Measurements reported in US20100267561A1, “HERBICIDAL PYRIDAZINONE DERIVATIVES” (priority 2007, published 2010).

Legend:
Format in all cases: in vivo
[1] = test system: eastern black (E.B.) nightshade (Solanum ptycanthum); assay: Test B pre-/postemergence plant response; conditions: Preemergence
Method in brief: (§1)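 Seeds were sown and sprayed preemergence, while plants at 2 to 18 cm (1- to 4-leaf stage) got postemergence sprays. Compounds were formulated in a non-phytotoxic solvent mixture with surfactant. After 13 to 15 days in a greenhouse, injury was rated visually against untreated controls, 0 (no effect) to 100 (complete control).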

corn (Zea mays) = assay: Test B pre-/postemergence plant response; conditions: for Corn plant response rating: 8 g ai/ha
Method in brief: as §1

[2] = test system: giant foxtail (Setaria faberii); assay: Test B pre-/postemergence plant response; conditions: for Foxtail, Giant plant response rating: 8 g ai/ha
Method in brief: as §1

[3] = test system: bermudagrass (Cynodon dactylon); assay: Test B pre-/postemergence plant response; conditions: for Bermudagrass plant response rating: 8 g ai/ha
Method in brief: as §1

[4] = test system: yellow nutsedge (Cyperus esculentus); assay: Test B pre-/postemergence plant response; conditions: for Nutsedge, Yellow plant response rating: 8 g ai/ha
Method in brief: as §1

[5] = test system: velvetleaf (Abutilon theophrasti); assay: Test B pre-/postemergence plant response; conditions: for Velvetleaf plant response rating: 8 g ai/ha
Method in brief: as §1

wild oat (Avena fatua) = assay: Test B pre-/postemergence plant response; conditions: for Oat, Wild plant response rating: 8 g ai/ha
Method in brief: as §1

[6] = test system: lambsquarters (Chenopodium album); assay: Test B pre-/postemergence plant response; conditions: for Lambsquarters plant response rating: 8 g ai/ha
Method in brief: as §1

[7] = test system: morningglory (Ipomoea coccinea); assay: Test B pre-/postemergence plant response; conditions: for Morningglory plant response rating: 8 g ai/ha
Method in brief: as §1

[8] = test system: blackgrass (Alopecurus myosuroides); assay: Test B pre-/postemergence plant response; conditions: for Blackgrass plant response rating: 8 g ai/ha
Method in brief: as §1

[9] = test system: winter barley (Hordeum vulgare); assay: Test B postemergence plant response; conditions: for Plant response rating, Barley: Postemergence, scale 0 to 100, 0 no effect, 100 complete control
Method in brief: (§2)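 Scoring: 0 means no effect and 100 complete control, judged by eye against controls after 13–15 days under greenhouse conditions following postemergence application at 2–18 cm plant height.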

[10] = test system: canarygrass (Phalaris minor); assay: Test B postemergence plant response; conditions: for Plant response rating, Canarygrass: Postemergence
Method in brief: as §2

[11] = test system: windgrass (Apera spica-venti); assay: Test B postemergence plant response; conditions: for Plant response rating, Windgrass: Postemergence
Method in brief: as §2

[12] = test system: chickweed (Stellaria media); assay: Test B postemergence plant response; conditions: for Plant response rating, Chickweed: Postemergence
Method in brief: as §2

[13] = test system: barnyardgrass (Echinochloa crus-galli); assay: Test B flooded paddy test plant response
Method in brief: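 2-leaf plants; pots flooded 3 cm above soil; compound added to paddy water; depth maintained. Greenhouse 13–15 d. Visual rating vs controls, 0 (no effect) to 100 (complete control); dash = no result.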

[14] = Postemergence, 16 g ai/ha, scale 0 to 100
[15] = Postemergence, 31 g ai/ha, scale 0 to 100, 0 no effect, 100 complete control
[16] = Postemergence, 62 g ai/ha, scale 0 to 100, 0 no effect, 100 complete control
[17] = Preemergence, 16 g ai/ha, scale 0 to 100 (0 no effect, 100 complete control)
[18] = Preemergence, 31 g ai/ha, 0 to 100 scale, 0 no effect, 100 complete control
[19] = Preemergence, 62 g ai/ha, scale 0 to 100
[20] = 8 g ai/ha, postemergence, 0-100 scale
[21] = 31 g ai/ha, scale 0 to 100, 0 no effect, 100 complete control
[22] = 62 g ai/ha, scale 0 to 100, 0 no effect, 100 complete control

CCc1cc(-c2ccc(Cl)cc2)nn1-c1c(OS(C)(=O)=O)cnn(C)c1=O [Compound 39]
Plant response rating, Nightshade, E. B. ([1]; 16 g ai/ha, scale 0 to 100 (0 no effect, 100 complete control)): 0 | Plant response rating, Nightshade, E. B. ([1]; 31 g ai/ha, 0 to 100 scale, 0 no effect, 100 complete control): 0 | Plant response rating, Nightshade, E. B. ([1]; 62 g ai/ha, scale 0 to 100): 0 | Nightshade, E. B. plant response rating ([1]; 8 g ai/ha, scale 0 to 100): 0 | Corn plant response rating (corn (Zea mays); postemergence, 0-100 scale): 0 | Plant response rating, Corn (corn (Zea mays); [14]): 85 | Plant response rating, Corn (corn (Zea mays); [15]): 98 | Plant response rating, Corn (corn (Zea mays); [16]): 100 | Plant response rating, Corn (corn (Zea mays); [17]): 80 | Plant response rating, Corn (corn (Zea mays); [18]): 98 | Plant response rating, Corn (corn (Zea mays); [19]): 100 | Corn plant response rating (corn (Zea mays); Preemergence, scale 0 to 100): 65 | Foxtail, Giant plant response rating ([2]; postemergence, 0-100 scale): 80 | Plant response rating, Foxtail, Giant [2, 14]: 98 | Plant response rating, Foxtail, Giant [2, 15]: 100 | Plant response rating, Foxtail, Giant [2, 16]: 100 | Plant response rating, Foxtail, Giant [2, 17]: 100 | Plant response rating, Foxtail, Giant [2, 18]: 100 | Plant response rating, Foxtail, Giant [2, 19]: 100 | Foxtail, Giant plant response rating ([2]; Preemergence, scale 0 to 100): 100 | Bermudagrass plant response rating ([3]; postemergence, 0-100 scale): 0 | Plant response rating, Bermudagrass [3, 14]: 60 | Plant response rating, Bermudagrass [3, 15]: 75 | Plant response rating, Bermudagrass [3, 16]: 95 | Bermudagrass plant response rating ([3]; Preemergence, scale 0 to 100 (0 no effect, 100 complete control)): 0 | Plant response rating, Bermudagrass [3, 17]: 90 | Plant response rating, Bermudagrass [3, 18]: 95 | Plant response rating, Bermudagrass [3, 19]: 98 | Nutsedge, Yellow plant response rating ([4]; postemergence, 0-100 scale): 0 | Plant response rating, Nutsedge, Yellow [4, 14]: 0 | Plant response rating, Nutsedge, Yellow [4, 15]: 0 | Plant response rating, Nutsedge, Yellow [4, 16]: 0 | Plant response rating, Nutsedge, Yellow [4, 17]: 0 | Plant response rating, Nutsedge, Yellow [4, 18]: 0 | Plant response rating, Nutsedge, Yellow [4, 19]: 0 | Nutsedge, Yellow plant response rating ([4]; Preemergence, scale 0 to 100): 0 | Velvetleaf plant response rating ([5]; postemergence, 0-100 scale): 0 | Plant response rating, Velvetleaf [5, 14]: 0 | Plant response rating, Velvetleaf [5, 16]: 0 | Plant response rating, Velvetleaf [5, 17]: 0 | Plant response rating, Velvetleaf [5, 18]: 0 | Plant response rating, Velvetleaf [5, 19]: 0 | Velvetleaf plant response rating ([5]; Preemergence, scale 0 to 100): 0 | Oat, Wild plant response rating (wild oat (Avena fatua); postemergence, 0-100 scale): 95 | Plant response rating, Oat, Wild (wild oat (Avena fatua); [14]): 95 | Plant response rating, Oat, Wild (wild oat (Avena fatua); [15]): 100 | Plant response rating, Oat, Wild (wild oat (Avena fatua); [16]): 100 | Plant response rating, Oat, Wild (wild oat (Avena fatua); [17]): 90 | Plant response rating, Oat, Wild (wild oat (Avena fatua); [18]): 90 | Plant response rating, Oat, Wild (wild oat (Avena fatua); [19]): 95 | Oat, Wild plant response rating (wild oat (Avena fatua); Preemergence, scale 0 to 100): 70 | Lambsquarters plant response rating ([6]; postemergence, 0-100 scale): 0 | Plant response rating, Lambsquarters [6, 14]: 0 | Plant response rating, Lambsquarters [6, 15]: 0 | Plant response rating, Lambsquarters [6, 16]: 0 | Plant response rating, Lambsquarters [6, 17]: 0 | Plant response rating, Lambsquarters [6, 18]: 0 | Plant response rating, Lambsquarters [6, 19]: 0 | Lambsquarters plant response rating ([6]; Preemergence, scale 0 to 100): 0 | Morningglory plant response rating ([7]; postemergence, 0-100 scale): 0 | Plant response rating, Morningglory [7, 14]: 0 | Plant response rating, Morningglory [7, 15]: 0 | Plant response rating, Morningglory [7, 16]: 0 | Plant response rating, Morningglory [7, 17]: 0 | Plant response rating, Morningglory [7, 18]: 0 | Plant response rating, Morningglory [7, 19]: 0 | Morningglory plant response rating ([7]; Preemergence, scale 0 to 100): 0 | Blackgrass plant response rating ([8]; postemergence, 0-100 scale): 0 | Plant response rating, Blackgrass [8, 14]: 0 | Plant response rating, Blackgrass [8, 15]: 95 | Plant response rating, Blackgrass [8, 16]: 100 | Plant response rating, Blackgrass [8, 17]: 90 | Plant response rating, Blackgrass [8, 18]: 90 | Plant response rating, Blackgrass [8, 19]: 90 | Blackgrass plant response rating ([8]; Preemergence, scale 0 to 100): 40 | Barley plant response rating [9, 20]: 0 | Plant response rating, Barley ([9]; 16 g ai/ha): 5 | Plant response rating, Barley ([9]; 31 g ai/ha): 40 | Plant response rating, Barley ([9]; 62 g ai/ha): 70 | Canarygrass plant response rating [10, 20]: 0 | Plant response rating, Canarygrass ([10]; 16 g ai/ha, scale 0 to 100): 0 | Plant response rating, Canarygrass [10, 21]: 40 | Plant response rating, Canarygrass [10, 22]: 50 | Windgrass plant response rating [11, 20]: 0 | Plant response rating, Windgrass ([11]; 16 g ai/ha, scale 0 to 100): 40 | Plant response rating, Windgrass [11, 22]: 100 | Chickweed plant response rating [12, 20]: 0 | Plant response rating, Chickweed ([12]; 16 g ai/ha, scale 0 to 100): 0 | Plant response rating, Chickweed [12, 21]: 0 | Plant response rating, Chickweed [12, 22]: 0 | Plant response rating, Barnyardgrass ([13]; Flood (flooded paddy test), 62 g ai/ha, scale 0 to 100, 0 no effect, 100 complete control): 80 | Plant response rating, Barnyardgrass ([13]; Flood (flooded paddy test), 125 g ai/ha, scale 0 to 100, 0 no effect, 100 complete control): 65 | Plant response rating, Barnyardgrass ([13]; Flood (flooded paddy test), 250 g ai/ha, scale 0 to 100, 0 no effect, 100 complete control): 85 | Plant response rating, Barnyardgrass ([13]; Flood, 31 g ai/ha, scale 0 to 100): 0
